Test results from paper PMC11638703 (RSC Advances, 2024).
Where two headings read alike, the source gives them in different places.

Assays:
PIM-1 kinase [1] = biological target: T1, PIM-1 kinase (Homo sapiens, UniProt P11309); details: previously synthesized compound; ref [40]; cited from earlier work
THLE2 cells = experiment: Cytotoxicity, MTT assay, normal THLE2 cells; format: cell-based
caspase 9 = experiment: Caspase 9 level by ELISA in treated HepG2 cells; format: cell-based, human; details: HepG2 treated at IC50 dose
PIM-1 kinase [2] = biological target: T1, PIM-1 kinase; experiment: PIM-1 kinase inhibitory assay; format: biochemical
HepG2 cells [3] = experiment: Annexin V/PI staining flow cytometry; format: cell-based; details: HepG2, IC50 dose, 48 h
caspase 8 = experiment: Caspase 8 level by ELISA in treated HepG2 cells; format: cell-based, human; details: HepG2 treated at IC50 dose, 48 h, control 55.01
HepG2 cells [4] = experiment: Cytotoxicity, MTT assay, HepG2 cells; format: cell-based; details: for LLE (lipophilic efficiency): from HepG2 IC50
MCF-7 cells = experiment: Cytotoxicity, MTT assay, MCF-7 cells; format: cell-based, human; details: from MCF-7 IC50
caspase 3 = experiment: Caspase 3 level by ELISA in treated HepG2 cells; format: cell-based, human; details: HepG2 treated at IC50 dose, 48 h, control 4.01

T1 sequence (P11309 whole entry): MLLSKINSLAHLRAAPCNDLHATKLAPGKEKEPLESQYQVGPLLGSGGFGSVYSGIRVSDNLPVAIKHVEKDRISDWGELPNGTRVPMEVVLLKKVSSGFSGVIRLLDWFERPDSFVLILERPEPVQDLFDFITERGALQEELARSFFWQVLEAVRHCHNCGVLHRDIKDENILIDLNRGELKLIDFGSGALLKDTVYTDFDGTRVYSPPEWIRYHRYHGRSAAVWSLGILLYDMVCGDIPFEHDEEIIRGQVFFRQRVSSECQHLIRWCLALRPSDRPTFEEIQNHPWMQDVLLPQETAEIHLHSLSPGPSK

Structure (SMILES)	% of PIM-1 inhibition (PIM-1 kinase [2]) [%]	IC50 (PIM-1 kinase [2]) [nM]	LLE (lipophilic efficiency) (HepG2 cells [4])	LLE (lipophilic efficiency) (MCF-7 cells)	further results
N#Cc1cnc2ncncc2c1 [Pyrido[2,3-d] pyrimidine-6-carbonitrile]					% of PIM-1 inhibition (PIM-1 kinase [1]): 97.8 ± 1.8%
COc1cc(-c2cc(-c3ccc(Cl)cc3)n(CC(=O)NN)c(=O)c2C#N)ccc1O [Compound 9, 2-(6-(4-Chlorophenyl)-3-cyano-4-(4-hydroxy-3-methoxyphenyl)-2-oxopyridin-1(2H)-yl)acetohydrazide]	98.8 ± 1.9	8.4 ± 0.2	5.60	5.41	maximum cell growth inhibition (THLE2 cells): 13%; selectivity for caspase-9 compared to caspase-3 and caspase-8 (caspase 9): ~2.6 fold; Concentration Caspase 9 (caspase 9; 48 h, ELISA, control 43.33): 112.6 ng/mL; early apoptosis (HepG2 cells [3]): 15.2%; late apoptosis (HepG2 cells [3]): 37.5%; necrosis cell death (HepG2 cells [3]): failed to enhance necrosis cell death; total apoptotic cell death vs untreated control (HepG2 cells [3]): 175 times; total apoptosis (HepG2 cells [3]; untreated 0.30%): 52.7%; Concentration Caspase 8 (caspase 8): 74.4 ng/mL; percentage of cell growth (inhibition) (HepG2 cells [4]; HepG2, maximal concentration): 94%; Concentration Caspase 3 (caspase 3): 9.8 ng/mL
COc1cc(-c2cc(-c3ccc(Cl)cc3)n(CC(=O)n3nc(C)cc3C)c(=O)c2C#N)ccc1O [Compound 10, 6-(4-Chlorophenyl)-1-(2-(3,5-dimethyl-1H-pyrazol-1-yl)-2-oxoethyl)-4-(4-hydroxy-3-methoxyphenyl)-2-oxo-1,2-dihydropyridine-3-carbonitrile]	87.6 ± 3.2	34.6 ± 0.12			
CCOC(=O)Cn1c(-c2ccc(Cl)cc2)cc(-c2ccc(O)c(OC)c2)c(C#N)c1=O [Compound 5, Ethyl 2-(6-(4-chlorophenyl)-3-cyano-4-(4-hydroxy-3-methoxyphenyl)-2-oxopyridin-1(2H)-yl)acetate]	83.4 ± 2.3	64.6 ± 0.2	2.93	2.65	
COc1cc(-c2cc(-c3ccc(Cl)cc3)n(CN(C)C)c(=O)c2C#N)ccc1O [Compound 8, 6-(4-Chlorophenyl)-1-((dimethylamino)methyl)-4-(4-hydroxy-3-methoxyphenyl)-2-oxo-1,2-dihydropyridine-3-carbonitrile]			2.76	2.97	
